Earlier results as cited in patent publication US5530141A, “2,4-diaryl-1,3-dithiolanes; 2,4-diaryl-1,3-dioxolanes; 2,4-diaryl-1,3-oxathiolanes; and 2,5-diaryl-1,3-oxathiolanes for the treatment of disorders mediated by platelet activating factor or products of 5-lipoxygenase” (Center for Innovative Technology, priority 1992, dated 1996).

Columns and labels:
[1] = cited from earlier work
[2] = tested on: 5-lipoxygenase; conditions: cited from earlier work
[3] = tested on: PAF receptor sites; conditions: cited from earlier work
[4] = tested on: PAF-induced rat cutaneous vascular permeability; conditions: cited from earlier work

Row | Compound | plasma half life [1] | effect on the enzyme 5-lipoxygenase [2] | inhibits the binding of tritiated PAF to PAF receptor sites ([3]; Hwang et al. 1985) | potency of trans-L-652,731 relative to cis-L-652,731 ([3]; more potent than cis-L-652,731) | inhibition of PAF-induced rat cutaneous vascular permeability ([4]; dosage of 30 mg/kg body weight, rat) | oral activity ([4]; oral)
1 | 1-O-alkyl-2-acetyl-sn-glycerol-3-phosphorylcholine [PAF] | 2 to 4 min | – | – | – | – | –
2 | COc1cc([C@H]2CC[C@H](c3cc(OC)c(OC)c(OC)c3)O2)cc(OC)c1OC (relative stereo) [L-652,731, trans-2,5-bis-(3,4,5-trimethoxyphenyl) tetrahydrofuran] | – | no effect on the enzyme 5-lipoxygenase | inhibits the binding of tritiated PAF to PAF receptor sites | approximately 1000 times | inhibit PAF-induced rat cutaneous vascular permeability | orally active
